Experiment [1] concerns the target T1, adenosine A1 receptor (A1AR) (Homo sapiens, UniProt P30542).
T1 construct: gene ADORA1
T1 sequence (P30542 1-326): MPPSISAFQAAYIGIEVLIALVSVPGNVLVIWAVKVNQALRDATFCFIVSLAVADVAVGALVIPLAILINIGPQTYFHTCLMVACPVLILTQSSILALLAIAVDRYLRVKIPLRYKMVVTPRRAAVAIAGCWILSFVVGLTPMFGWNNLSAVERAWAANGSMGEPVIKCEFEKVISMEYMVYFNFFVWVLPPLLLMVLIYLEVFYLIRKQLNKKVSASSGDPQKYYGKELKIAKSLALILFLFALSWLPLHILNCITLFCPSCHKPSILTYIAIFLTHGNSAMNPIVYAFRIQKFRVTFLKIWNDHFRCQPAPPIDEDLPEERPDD
Briefly: single-point [3H]DPCPX radioligand displacement at […] ([…]). In general terms: Loss of bound radioactivity is the signal in a displacement assay; it reports binding, not function.

Experiment [2] concerns the target T1, adenosine A1 receptor (A1AR). Briefly: [3H]DPCPX radioligand displacement on CHO-hA1AR membranes with […] h or […] h preincubation (apparent pKi […] and […]), wash-out, gel labeling, pull-down LC-MS/MS. In kind it is binding.

SMILES strings stand for the structures.

`C#CCNc1nc(SCCCNC(=O)c2ccc(S(=O)(=O)F)cc2)c(C#N)c(-c2ccc3c(c2)OCO3)c1C#N` [compound 1, 1]: in experiment [1], the “% displacement at 1 μM” value was ~ 70.

For the compound `C#CCN(CCCSc1nc(N)c(C#N)c(-c2ccc3c(c2)OCO3)c1C#N)C(=O)c1ccc(S(=O)(=O)F)cc1` [compound 4, LUF7909], the Ki in experiment [2] is 16 nM.

(Values after paper PMC9679998 (ACS Chemical Biology, 2022).)
